The values that follow come from paper PMC5509550, “Development of a Novel Lead that Targets M. tuberculosis Polyketide Synthase 13” (Cell, 2017).

The structures appear in SMILES notation.

One assay concerns Mtb mc^27000. In words: microbe, parasite or virus in culture. It counts as cell-based, Mycobacterium tuberculosis.
A further assay relates to M. tuberculosis Erdman. Also on record: species or system Mycobacterium tuberculosis. The following applies: in vivo.

`CO[C@H]1/C=C/O[C@@]2(C)Oc3c(C)c(O)c4c(O)c(c(/C=N/N5CCN(C)CC5)c(O)c4c3C2=O)NC(=O)/C(C)=C\C=C\[C@H](C)[C@H](O)[C@@H](C)[C@@H](O)[C@@H](C)[C@H](OC(C)=O)[C@@H]1C` [RIF, Rifampicin]: in the assay with Mtb mc^27000, the “MIC of RIF in combination” value is 0.011 µM and the “improvement of MIC of RIF in combination” value is given as around 3 fold. Also, the MIC with Mtb mc^27000 (Mycobacterium tuberculosis, read-out: MIC of the drug alone) turned out to be 0.35 µM. Further, the “CFU reduction in lungs compared to untreated control” value in the assay on M. tuberculosis Erdman is on record as around 2.4 log10 CFU.
